The test system of test [1] is Phosphatidyl inositol-specific phospholipase C. Nature of the test: Phosphatidyl inositol-specific phospholipase C assay with sonicated human platelets. It is filed as biochemical. On the procedure: A. Protocol--Phosphatidyl inositol-specific phospholipase C assays. The assays were performed as follows: A mixture of PI (Sigma) and (^3 H-inositol)-PI in CHCl3 are blown to dryness under N2 and sonicated into a buffer containing DOC and CaCl2 so that the final concentrations in each 200 λ assay are:
0.5 mg/ml DOC containing an appropriate amount of an active compound
in 50 mM Hepes, 100 mM NaCl, 0.5 mg/ml BSA pH 7.
An aliquot of sonicated human platelets, 5×10^9 /ml, is added; the reaction is stopped after 10 minutes with a chloroform/methanol/H2 O solution and the upper water phase is counted to detect water-soluble inositol counts. The pH was checked during each assay using pH paper to verify that none of the compounds affected this parameter.

In the next test the test system is phospholipase C. Conditions: background statement; cited from earlier work.
Where [2] appears, read: Table II, Concentration 0.20 mM.

Molecules are shown by their SMILES.

`CCCCCCCCCCCCCCCCCCP(=O)(O)O[C@H]1[C@H](O)[C@@H](O)[C@H](OP(=O)(O)CCCCCCCCCCCCCCCCCC)[C@@H](O)[C@H]1O` (relative stereo) [1,4-di(octadecylphosphonyl)-myo-inositol]: the % Inhibition (usually the drop in the measured response relative to a control, in per cent) in test [1] (Table II, Concentration 0.033 mM) is listed as 18%; in test [1] (Table II, Concentration 0.33 mM), 37%.
Take `CCCCCCCCCCCCP(=O)(O)O[C@@H]1[C@H](O)[C@H](O)[C@@H](O)[C@H](O)[C@H]1O` (relative stereo) [1-O--(dodecylphosphonyl)-myo-inositol]: the “% Inhibition” value in test [1] (setting [2]) was 51%; in test [1] (Table II, Concentration 2.0 mM), 82%.
Consider `CCCCCCCCCCCCCCCCCCP(=O)(O)O[C@@H]1[C@H](O)[C@H](O)[C@@H](O)[C@H](O)[C@H]1O` (relative stereo) [1-O--(octadecylphosphonyl)-myo-inositol], for which the “% Inhibition” value is listed as 12% in test [1] (Table II, Concentration 0.105 mM) and 66% in test [1] (Table II, Concentration 1.05 mM).
As for `CCCCCCCCCCCCCCCCCCP(=O)(O)O[C@H]1[C@H](O)[C@@H](O)[C@H](O)[C@@H](O)[C@]1(O)CO` (relative stereo) [DL-2-C--hydroxymethyl-1-O--octadecanephosphonyl-myo-inositol], the “% Inhibition” value came to 51% in test [1] (Table II, Concentration 0.115 mM) and 89% in test [1] (Table II, Concentration 1.15 mM).
Regarding `CCCCCCCCCCCCCCCCCCP(=O)(O)O[C@H]1[C@H](O)[C@@H](O)[C@H](O)[C@@H](O)[C@H]1OC` (relative stereo) [DL-2-O--methyl-1-O--(octadecylphosphonyl)-myo-inositol], the “% Inhibition” value in test [1] (Table II, Concentration 0.122 mM) came out at 53%; in test [1] (Table II, Concentration 1.22 mM), 83%.
Regarding `CCCCCCCCCCCCP(=O)(O)O[C@H]1[C@H](O)[C@@H](O)[C@H](OP(=O)(O)CCCCCCCCCCCC)[C@@H](O)[C@H]1O` (relative stereo) [Example 20, 1,4-di-O-(dodecylphosphonyl)myo-inositol], the “% Inhibition” value in test [1] (Table II, Concentration 0.043 mM) is recorded as 20%; in test [1] (Table II, Concentration 0.432 mM), 64%.
With `CCCCCCCCCCCCCCCCCCP(=O)(O)OC1C(O)C(O)C(O)C(O)C1O` (stereo not shown) [5-O--(octadecylphosphonyl)-myo-inositol], the “% Inhibition” value turned out to be 27% in test [1] (Table II, Concentration 0.050 mM); 60% in test [1] (setting [2]); 81% in test [1] (Table II, Concentration 1.00 mM).
In the case of `CCCCCCCC(=O)OCC(CCP(=O)(OC)OC1C(O)C(O)C(O)C(O)C1O)OC(=O)CCCCCCC` (stereo not shown) [(M) (M) CH3], the “% Inhibition” value in test [1] (Table I, Conc. 0.5 mM) came out at 50%; in test [1] (Table I, Conc. 1.0 mM) it was 72%.
For the compound `CCCCCCCCCC(=O)OC(CCP(=O)(O)OC1C(O)C(O)C(O)C(O)C1O)COC(=O)Cc1ccc(-c2ccccc2)cc1` (stereo not shown) [.0.-.0.CH2 CO, 3-Decanoyloxy-4-(p-diphenylacetyloxy)-butyl-1-phosphonyl-myo-inositol], the “% Inhibition” value in test [1] (Table I, Conc. 0.5 mM) is listed as 61%; in test [1] (Table I, Conc. 1.0 mM) it was 75%.
For the compound `CCCCCCCCCC(=O)OC(CCP(=O)(O)OC1C(O)C(O)C(O)C(O)C1O)COC(=O)CCc1ccc(Oc2ccccc2)cc1` (stereo not shown) [.0.O.0.CH2 CH2 CO], the “% Inhibition” value in test [1] (Table I, Conc. 0.1 mM) is given as 47%; in test [1] (Table I, Conc. 0.5 mM), 66%; in test [1] (Table I, Conc. 1.0 mM) it was 76%.
Turning to `CCCCCCCC(=O)OCC(CCP(=O)(O)OC1C(O)C(O)C(O)C(O)C1O)OC(=O)CCCCCCC` (stereo not shown) [n-C7 H15 CO, 3,4-Dioctanoyloxybutyl-1-phosphonyl-myo-inositol], the “% Inhibition” value in test [1] (Table I, Conc. 1.0 mM) amounted to 64%.
With `CCCCCCCCCC(=O)OCC(CCP(=O)(O)OC1C(O)C(O)C(O)C(O)C1O)OC(=O)CCCCCCCCC` (stereo not shown) [n-C9 H19 CO, 3,4-Didecanoyloxybutyl-1-phosphonyl-myo-inositol], the “% Inhibition” value in test [1] (Table I, Conc. 1.0 mM) was found to be 68%.
As for `CCCCCCCCCCCCCCCC(=O)OCC(CCP(=O)(O)OC1C(O)C(O)C(O)C(O)C1O)OC(=O)CCCCCCCCCCCCCCC` (stereo not shown) [n-C15 H31 CO, 3,4-Dipalmitoyloxybutyl-1-phosphonyl-myo-inositol], the “% Inhibition” value is 37% in test [1] (Table I, Conc. 0.05 mM); 82% in test [1] (Table I, Conc. 0.5 mM); 84% in test [1] (Table I, Conc. 1.0 mM).
For `c1ccc2c(c1)Nc1ccccc1S2` [phenothiazine], the “inhibition of phospholipase C” value in the test with phospholipase C is “inhibited”.

Values taken from patent US4515722A, “Phosphatidyl inositol analogs useful as anti-inflammatory/analgesic agents” (Merck & Co., Inc., priority 1982, dated 1985).
